{"source": "PubChem BioAssay AID330", "about": "(DTP/NCI, 2004)", "test_system": "P388 leukemia ip, CD2F1 mice, survival T/C", "test": "NCI In Vivo Anticancer Drug Screen. Data for tumor model P388 Leukemia (intraperitoneal) in CD2F1 (CDF1) mice", "conditions": "endpoint: median survival time, higher = longer survival", "procedure,_shortened": "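Mice carrying the transplanted tumor received test compound or vehicle. Survival was recorded in each group, and the value is the treated-group measurement divided by that of the vehicle-treated control group.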", "key": {"[1]": {"conditions": "dose: 25.0 mg/kg/injection, schedule: Q01DX009 (ip), vehicle: saline with Tween-80"}, "[2]": {"conditions": "dose: 50.0 mg/kg/injection, schedule: Q01DX009 (ip), vehicle: saline with Tween-80"}, "[3]": {"conditions": "dose: 100.0 mg/kg/injection, schedule: Q01DX009 (ip), vehicle: saline with Tween-80"}}, "note": "Where “and” joins values, the source holds several entries; their conditions need not be identical. Equal entries are not always repeated. Inconclusive results and toxic doses are left out."}
{"smiles": "COC(=O)N/N=C(/CC1(O)C(=O)Nc2ccc(Br)cc21)c1ccc(Cl)cc1Cl", "note": "(stereo not drawn)", "values": [{"measurement": "T/C", "setting": "dose: 100.0 mg/kg/injection, schedule: Q04DX002 (ip), vehicle: saline with Tween-80", "value": "89 % of control"}, {"measurement": "T/C", "setting": "dose: 200.0 mg/kg/injection, schedule: Q04DX002 (ip), vehicle: saline with Tween-80", "value": "95 % of control"}, {"measurement": "T/C", "setting": "dose: 400.0 mg/kg/injection, schedule: Q04DX002 (ip), vehicle: saline with Tween-80", "value": "100 % of control"}]}
{"smiles": "CCOC(=O)C1(CO)C(=O)Nc2ccccc21", "note": "(stereo not drawn)", "values": [{"measurement": "T/C", "setting": "dose: 50.0 mg/kg/injection, schedule: Q01DX009 (ip), vehicle: Klucel (hydroxypropylcellulose) (HPC)", "value": "110 % of control"}, {"measurement": "T/C", "setting": "dose: 100.0 mg/kg/injection, schedule: Q01DX009 (ip), vehicle: Klucel (hydroxypropylcellulose) (HPC)", "value": "106 % of control"}, {"measurement": "T/C", "setting": "dose: 200.0 mg/kg/injection, schedule: Q01DX009 (ip), vehicle: Klucel (hydroxypropylcellulose) (HPC)", "value": "107 % of control"}]}
{"smiles": "CC(C)c1ccc(O)c(=O)cc1", "values": [{"measurement": "T/C", "setting": "[1]", "value": "99 % of control"}, {"measurement": "T/C", "setting": "[2]", "value": "102 % of control"}, {"measurement": "T/C", "setting": "[3]", "value": "114 % of control"}]}
{"smiles": "Cn1c(O)c(N=O)c(=O)n(C)c1=O", "values": [{"measurement": "T/C", "setting": "[1]", "value": "105 % of control"}, {"measurement": "T/C", "setting": "[2]", "value": "100 % of control"}, {"measurement": "T/C", "setting": "[3]", "value": "111 % of control"}]}
{"smiles": "CC(=O)c1ccc(-n2c(=O)n(-c3ccccc3)c3nc4cc(C)ccc4nc32)cc1", "values": [{"measurement": "T/C", "setting": "dose: 50.0 mg/kg/injection, schedule: Q01DX005 (ip), vehicle: saline with Tween-80", "value": "90 % of control"}, {"measurement": "T/C", "setting": "dose: 100.0 mg/kg/injection, schedule: Q01DX005 (ip), vehicle: saline with Tween-80", "value": "92 % of control"}, {"measurement": "T/C", "setting": "dose: 200.0 mg/kg/injection, schedule: Q01DX005 (ip), vehicle: saline with Tween-80", "value": "98 % of control"}]}
{"smiles": "Cc1c(Br)sc2ccc3ccccc3c12", "values": [{"measurement": "T/C", "setting": "dose: 100.0 mg/kg/injection, schedule: Q01DX001 (ip), vehicle: saline with Tween-80", "value": "103 % of control"}, {"measurement": "T/C", "setting": "dose: 200.0 mg/kg/injection, schedule: Q01DX001 (ip), vehicle: saline with Tween-80", "value": "106 % of control"}, {"measurement": "T/C", "setting": "dose: 400.0 mg/kg/injection, schedule: Q01DX001 (ip), vehicle: saline with Tween-80", "value": "103 % of control"}]}
{"smiles": "COc1cc(Cc2nnc(Nc3ccccc3)[nH]c2=O)cc(OC)c1OC", "values": [{"measurement": "T/C", "setting": "dose: 100.0 mg/kg/injection, schedule: Q01DX001 (ip), vehicle: Klucel (hydroxypropylcellulose) (HPC)", "value": "98 % of control"}, {"measurement": "T/C", "setting": "dose: 200.0 mg/kg/injection, schedule: Q01DX001 (ip), vehicle: Klucel (hydroxypropylcellulose) (HPC)", "value": "94 % of control"}, {"measurement": "T/C", "setting": "dose: 400.0 mg/kg/injection, schedule: Q01DX001 (ip), vehicle: Klucel (hydroxypropylcellulose) (HPC)", "value": "98 % of control"}]}
{"smiles": "Cc1ccc(S(=O)(=O)OCCN(CCOS(=O)(=O)c2ccc(C)cc2)c2ccc(N=O)cc2)cc1", "values": [{"measurement": "T/C", "setting": "dose: 25.0 mg/kg/injection, schedule: Q04DX003 (ip), vehicle: saline with Tween-80", "value": "163 % of control"}, {"measurement": "T/C", "setting": "dose: 50.0 mg/kg/injection, schedule: Q04DX003 (ip), vehicle: saline with Tween-80", "value": "168 % of control"}, {"measurement": "T/C", "setting": "dose: 100.0 mg/kg/injection, schedule: Q04DX003 (ip), vehicle: saline sonified", "value": "122 % of control"}, {"measurement": "T/C", "setting": "dose: 100.0 mg/kg/injection, schedule: Q04DX003 (ip), vehicle: saline with Tween-80", "value": "177 % of control"}]}
{"smiles": "CCCC(CCC)NCC(O)c1cc(-c2ccc(C(F)(F)F)cc2)nc(C(F)(F)F)c1", "note": "(stereo not drawn)", "values": [{"measurement": "T/C", "setting": "dose: 12.5 mg/kg/injection, schedule: Q01DX009 (ip), vehicle: saline with Tween-80", "value": "102 % of control"}, {"measurement": "T/C", "setting": "[1]", "value": "107 % of control"}, {"measurement": "T/C", "setting": "[2]", "value": "100 % of control and 91 % of control"}]}
{"smiles": "Fc1ccc(NC(=S)SCc2ccc3c(c2)OCO3)cc1", "values": [{"measurement": "T/C", "setting": "dose: 50.0 mg/kg/injection, schedule: Q01DX009 (ip), vehicle: suspension in saline", "value": "101 % of control"}, {"measurement": "T/C", "setting": "dose: 100.0 mg/kg/injection, schedule: Q01DX009 (ip), vehicle: suspension in saline", "value": "101 % of control"}, {"measurement": "T/C", "setting": "dose: 200.0 mg/kg/injection, schedule: Q01DX009 (ip), vehicle: suspension in saline", "value": "116 % of control"}]}
{"smiles": "O=[N+]([O-])C1C2C=CC(C2)C1C(Cl)(Cl)Cl", "note": "(stereo not drawn)", "values": [{"measurement": "T/C", "setting": "dose: 0.19 mg/kg/injection, schedule: Q01DX009 (ip), vehicle: saline with Tween-80", "value": "101 % of control"}, {"measurement": "T/C", "setting": "dose: 0.39 mg/kg/injection, schedule: Q01DX009 (ip), vehicle: saline with Tween-80", "value": "100 % of control"}, {"measurement": "T/C", "setting": "dose: 0.78 mg/kg/injection, schedule: Q01DX009 (ip), vehicle: saline with Tween-80", "value": "98 % of control and 99 % of control"}]}
{"smiles": "O=C1C2CC(CN3CCCCC23)C2CCCCN12", "note": "(stereo not drawn)", "values": [{"measurement": "T/C", "setting": "dose: 6.2 mg/kg/injection, schedule: Q01DX007 (ip), vehicle: carboxymethylcellulose (CMC)", "value": "100 % of control"}, {"measurement": "T/C", "setting": "dose: 12.5 mg/kg/injection, schedule: Q01DX007 (ip), vehicle: carboxymethylcellulose (CMC)", "value": "91 % of control"}, {"measurement": "T/C", "setting": "dose: 25.0 mg/kg/injection, schedule: Q01DX007 (ip), vehicle: carboxymethylcellulose (CMC)", "value": "91 % of control"}, {"measurement": "T/C", "setting": "dose: 37.5 mg/kg/injection, schedule: Q01DX009 (ip), vehicle: saline", "value": "95 % of control"}, {"measurement": "T/C", "setting": "dose: 75.0 mg/kg/injection, schedule: Q01DX009 (ip), vehicle: saline", "value": "102 % of control"}, {"measurement": "T/C", "setting": "dose: 150.0 mg/kg/injection, schedule: Q01DX009 (ip), vehicle: saline", "value": "101 % of control"}]}
{"smiles": "O=C(C[n+]1ccnc2ccccc21)c1ccc(Cl)cc1", "values": [{"measurement": "T/C", "setting": "dose: 50.0 mg/kg/injection, schedule: Q01DX005 (ip), vehicle: Klucel (hydroxypropylcellulose) (HPC)", "value": "95 % of control"}, {"measurement": "T/C", "setting": "dose: 100.0 mg/kg/injection, schedule: Q01DX005 (ip), vehicle: Klucel (hydroxypropylcellulose) (HPC)", "value": "100 % of control"}, {"measurement": "T/C", "setting": "dose: 200.0 mg/kg/injection, schedule: Q01DX005 (ip), vehicle: Klucel (hydroxypropylcellulose) (HPC)", "value": "106 % of control"}]}
